{"source": "patent US4123518A", "about": "“Insecticidal phosphate ester-based solid composition with depot gas action” (priority 1974, dated 1978)", "key": {"[1]": {"test": "Acute oral toxicity, male rats", "conditions": "rat, in vivo"}, "male rats": {"test_system": "male rats", "test": "Acute inhalation toxicity, male rats (4 hours' exposure)", "format": "in vivo"}, "[2]": {"test_system": "flies of the species Musca domestica", "test": "Percentage of flies lying on their backs after one hour, shaped pieces in a 40 m^3 room (Example 9)", "format": "in vivo", "conditions": "shaped piece of Example 5 (Thio-DDVP) or 5a (DDVP)", "procedure": "One shaped piece produced according to Example 5 and one shaped piece produced according to Example 5a were each pushed into a net-like quiver and suspended from the ceiling in the center of identical rooms of 40 m^3 cubic capacity. Immediately thereafter (0), and after 4, 8 and 12 weeks, 200 flies of the species Musca domestica were in each case exposed in the rooms. […] In each case, the percentage of animals which had fallen on their backs was determined 1 hour after exposing the flies."}, "Musca domestica": {"test_system": "Musca domestica", "test": "Aerosol test (knock-down of 50% of the animals, LT50)", "format": "in vivo", "conditions": "comparison experiment, Example 1", "procedure": "The following examples explain the invention in more detail, with \"parts\" denoting parts by weight.\nTest animals: Musca domestica\nTo produce a suitable preparation of active compound, the active compound was mixed, at a range of concentrations, with the stated solvent.\nA wire cage which contained about 25 test animals was suspended in the centre of a gas-tight glass chamber of size 1 m^3. After the chamber had been closed again, 2 ml of the preparation of active compound were atomised in the chamber. The condition of the test animals was constantly checked from outside, through the glass walls, and the time required for a knock-down effect on 50% of the animals was determined.\nThe active compounds, amounts used and time after which 50% of the animals were lying on their backs (LT50) can be seen from the table which follows: […]"}, "warm-blooded animals": {"test_system": "warm-blooded animals", "test": "Toxicity to warm-blooded animals compared to DDVP", "format": "in vivo"}, "[3]": {"conditions": "age of the shaped pieces 0 weeks"}, "[4]": {"conditions": "age of the shaped pieces 4 weeks"}, "[5]": {"conditions": "age of the shaped pieces 8 weeks"}, "[6]": {"conditions": "age of the shaped pieces 12 weeks"}}, "data": [{"smiles": "COP(=O)(OC)OC=C(Cl)Cl", "note": "[DDVP, dimethyl-2,2-dichlorovinyl phosphate, reference compound]", "values": [{"measurement": "LD50", "setting": "[1]", "value": 62, "unit": "mg/kg"}, {"measurement": "LC50 male rats, acute inhalation toxicity", "setting": "male rats", "value": 340, "unit": "mg/m^3"}, {"measurement": "percentage of animals lying on their backs after one hour", "setting": "[2]; [3]", "value": 80, "unit": "percentage"}, {"measurement": "percentage of animals lying on their backs after one hour", "setting": "[2]; [4]", "value": 70, "unit": "percentage"}, {"measurement": "percentage of animals lying on their backs after one hour", "setting": "[2]; [5]", "value": 60, "unit": "percentage"}, {"measurement": "percentage of animals lying on their backs after one hour", "setting": "[2]; [6]", "value": 20, "unit": "percentage"}]}, {"smiles": "COP(=S)(OC)OC=C(Cl)Cl", "note": "[Thio-DDVP, dimethyl-2,2-dichlorovinyl thiophosphate]", "values": [{"measurement": "insecticidal action compared to DDVP", "setting": "Musca domestica", "value": "poorer insecticidal action"}, {"measurement": "LD50", "setting": "[1]", "value": 773, "unit": "mg/kg"}, {"measurement": "tolerance of the maximum possible concentration, acute inhalation toxicity", "setting": "male rats; 477 mg/m^3, maximum possible in the experiment", "value": "tolerated without symptoms"}, {"measurement": "LC50 male rats, acute inhalation toxicity", "setting": "male rats", "value": "> 477", "unit": "mg/m^3"}, {"measurement": "percentage of animals lying on their backs after one hour", "setting": "[2]; [3]", "value": 100, "unit": "percentage"}, {"measurement": "percentage of animals lying on their backs after one hour", "setting": "[2]; [4]", "value": 95, "unit": "percentage"}, {"measurement": "percentage of animals lying on their backs after one hour", "setting": "[2]; [5]", "value": 90, "unit": "percentage"}, {"measurement": "percentage of animals lying on their backs after one hour", "setting": "[2]; [6]", "value": 50, "unit": "percentage"}, {"measurement": "toxicity to warm-blooded animals compared to DDVP", "setting": "warm-blooded animals", "value": "lower toxicity to warm-blooded animals"}]}]}
